Experimental data from patent US8633204B2 (Pfizer Inc., priority 2006, dated 2014).

Test system: PI3-K in BT20 cells (phosphorylation of AKT at serine 473)
Assay: PI3-Kα Cellular Assay (AKT Ser473 phosphorylation ELISA in BT20 cells)
Type: cell-based, human
Settings: Homo sapiens, BT-20, pAKT Ser473 ELISA, 1 hour incubation
Experimental: Compounds of the present invention were evaluated for potency against PI3-K using a cellular assay as follows.
Healthy growing human breast cancer cells BT20 (PI3K mutated) are used for the assay. BT20 cells are grown in 10% FBS+GLN (1:100)+PS (1:100)+1 mM Sodium Pyruvate+0.1 mM Sodium Bicarbonate+Non-Essential Amino Acids Solution (1:100) MEM medium (MEM+all). […] The cells are re-suspended in 10% FBS MEM all and are centrifuged down at 1400 rpm for 5 minutes. The cells are re-suspended in 0.5% FBS MEM all and are counted on a cell counter. The cells are seeded at 25,000 cells/well in volume of 100 μL/well in 0.5% FBS MEM all in a 96 well flat-bottom plate. The negative control wells receive only 100 μL of 0.5% FBS MEM all medium without cells. The plate is incubated overnight in a cell culture incubator with 5% CO2 at 37° C.
On day 2, testing compounds are prepared in 0.5% FBS MEM all medium and serially diluted at 1:3 for 11 test concentrations. Each concentration of the compounds is tested in duplicate. The compound solutions are added at 25 μL/well to the corresponded wells in cell plate, and 25 μL/well of the vehicle (0.5% DMSO in 0.5% FBS MEM all) is added to the negative control wells (no cells) and the positive control wells (cells without compounds). The plate is incubated for 1 hour in a cell culture incubator with 5% CO2 at 37° C. After 1 hour of incubation, the medium is removed, 100 μL/well of cell lysis buffer is added into the cell plate, and shake for 15 minutes at room temperature. […] After 1 hour, empty the contents of the wells, wash the plate 4 times with the wash buffer, and add 100 μL of TMB substrate solution (catalog #T0440, Sigma) into each well, and incubate with gentle shaking at room temperature for […]. After 15 minutes of color development, add 100 μL of stop solution (1N hydrochloric acid) to each well, and read the plate at 450 nm on ELISA plate reader.

Cc1nc(N)nc2c1cc(-c1cn[nH]c1)c(=O)n2C1CCCC1 [Compound 101, 2-amino-8-cyclopentyl-6-(1H-pyrazol-4-yl)-4-methylpyrido[2,3-d]pyrimidin-7(8H)-one]
IC50: 3.49 nM

CCNc1nc(C)c2cc(CCC(N)=O)c(=O)n(C3CCCC3)c2n1 [Compound 118, 3-[8-cyclopentyl-2-(ethylamino)-4-methyl-7-oxo-7,8-dihydropyrido[2,3-d]pyrimidin-6-yl]propanamide]
IC50: 8370 nM

CCNc1nc(C)c2cc(CCC(=O)Nc3ccccn3)c(=O)n(C3CCCC3)c2n1 [Compound 122, 3-[8-cyclopenlyl-2-(ethylamino)-4-methyl-7-oxo-7,8-dihydropyrido[2,3-d]pyrimidin-6-yl]-N-pyridin-2-ylpropanamide]
IC50: 10000 nM

Cc1nc(N)nc2c1cc(-c1cccnc1N)c(=O)n2C1CCCC1 [Compound 125, 2-amino-6-(2-aminopyridin-3-yl)-8-cyclopentyl-4-methylpyrido[2,3-d]pyrimidin-7(8H)-one]
IC50: 9010 nM

CCNc1nc(C)c2cc(-c3ccc(O)c(OC)c3)c(=O)n(C3CCCC3)c2n1 [Compound 136, 8-cyclopentyl-2-(ethylamino)-6-(4-hydroxy-3-methoxyphenyl)-4-methylpyrido[2,3-d]pyrimidin-7(8H)-one]
IC50: 26.3 nM

CCNc1nc(C)c2cc(-c3ccc(OC)nc3)c(=O)n(C3CCCC3)c2n1 [Compound 139, 8-cyclopentyl-2-(ethylamino)-6-(6-methoxypyridin-3-yl)-4-methylpyrido[2,3-d]pyrimidin-7(8H)-one]
IC50: 17 nM

CNc1nc(C)c2cc(-c3ccc(OC)nc3)c(=O)n(C3CCCC3)c2n1 [Compound 140]
IC50: 0.793 nM

CCOC(=O)c1cccc(-c2cc3c(C)nc(NC)nc3n(C3CCCC3)c2=O)c1 [Compound 141, ethyl 3-[8-cyclopentyl-4-methyl-2-(methylamino)-7-oxo-7,8-dihydropyrido[2,3-d]pyrimidin-6-yl]benzoate]
IC50: 10000 nM

CCNc1nc(C)c2cc(-c3cccc(O)c3)c(=O)n(C3CCCC3)c2n1 [Compound 144, 8-cyclopentyl-2-(ethylamino)-6-(3-hydroxyphenyl)-4-methylpyrido[2,3-d]pyrimidin-7(8H)-one]
IC50: 3.05 nM

Cc1nc(N)nc2c1cc(Br)c(=O)n2[C@H]1CC[C@H](O)CC1 [Compound 157, 2-amino-6-bromo-8-(trans-4-hydroxycyclohexyl)-4-methylpyrido[2,3-d]pyrimidin-7(8H)-one]
IC50: 305 nM

Cc1nc(N)nc2c1cc(Br)c(=O)n2[C@@H]1CC[C@H](O)C1 [Compound 160, 2-amino-6-bromo-8-[(1R,3S)-3-hydroxycyclopentyl]-4-methylpyrido[2,3-d]pyrimidin-7(8H)-one]
IC50: 1040 nM

Cc1nc(N)nc2c1cc(-c1cnn(C)c1)c(=O)n2[C@@H]1CC[C@H](O)C1 [Compound 161, 2-amino-8-[(1R,3S)-3-hydroxycyclopentyl]-4-methyl-6-(1-methyl-1H-pyrazol-4-yl)pyrido[2,3-d]pyrimidin-7(8H)-one]
IC50: 934 nM

Cc1nc(N)nc2c1cc(-c1cn[nH]c1)c(=O)n2[C@@H]1CC[C@H](O)C1 [Compound 162, 2-amino-8-[(1R,3S)-3-hydroxycyclopentyl]-4-methyl-6-(1H-pyrazol-4-yl)pyrido[2,3-d]pyrimidin-7(8H)-one]
IC50: 47.2 nM

Cc1nc(N)nc2c1cc(-c1cnn(C)c1)c(=O)n2[C@@H]1CC[C@@H](O)C1 [Compound 164, 2-amino-8-[(1R,3R)-3-hydroxycyclopentyl]-4-methyl-6-(1-methyl-1H-pyrazol-4-yl)pyrido[2,3-d]pyrimidin-7(8H)-one]
IC50: 1300 nM

Cc1nc(N)nc2c1cc(-c1cn[nH]c1)c(=O)n2[C@@H]1CC[C@@H](O)C1 [Compound 166, 2-amino-8-[(1R,3R)-3-hydroxycyclopentyl]-4-methyl-6-(1H-pyrazol-4-yl)pyrido[2,3-d]pyrimidin-7(8H)-one]
IC50: 262 nM

Cc1nc(N)nc2c1cc(Br)c(=O)n2CC(C)(C)O [Compound 167, 2-amino-6-bromo-8-(2-hydroxy-2-methylpropyl)-4-methylpyrido[2,3-d]pyrimidin-7(8H)-one]
IC50: 2360 nM

COc1ccc(-c2cc3c(C)nc(N)nc3n(CC(C)(C)O)c2=O)cn1 [Compound 169, 2-amino-8-(2-hydroxy-2-methylpropyl)-6-(6-methoxypyridin-3-yl)-4-methylpyrido[2,3-d]pyrimidin-7(8H)-one]
IC50: 340 nM

Cc1nc(N)nc2c1cc(-c1cnc3[nH]ccc3c1)c(=O)n2CC(C)(C)O [Compound 172, 2-amino-8-(2-hydroxy-2-methylpropyl)-4-methyl-6-(1H-pyrrolo[2,3-b]pyridin-5-yl)pyrido[2,3-d]pyrimidin-7(8H)-one]
IC50: 116 nM

COc1ccc(-c2cc3c(C)nc(N)nc3n([C@H]3CC[C@@H](O)CC3)c2=O)cn1 [Compound 174, 2-amino-8-(cis-4-hydroxycyclohexyl)-6-(6-methoxypyridin-3-yl)-4-methylpyrido[2,3-d]pyrimidin-7(8H)-one]
IC50: 19 nM

Cc1nc(N)nc2c1cc(-c1cn[nH]c1)c(=O)n2C1CCC(=O)CC1 [Compound 176, 2-amino-4-methyl-8-(4-oxocyclohexyl)-6-(1H-pyrazol-4-yl)pyrido[2,3-d]pyrimidin-7(8H)-one]
IC50: 4.66 nM

COc1ncc(-c2cc3c(C)nc(N)nc3n([C@H]3CC[C@@H](O)CC3)c2=O)cc1F [Compound 177]
IC50: 8.02 nM

COc1ncc(-c2cc3c(C)nc(N)nc3n([C@H]3CC[C@H](OC)CC3)c2=O)cc1F [Compound 180, 2-amino-6-(5-fluoro-6-methoxypyridin-3-yl)-8-(trans-4-methoxycyclohexyl)-4-methylpyrido[2,3-d]pyrimidin-7(8H)-one]
IC50: 3.39 nM

Cc1nc(N)nc2c1cc(-c1ccc(N(C)C)nc1)c(=O)n2[C@H]1CC[C@@H](O)CC1 [Compound 181, 2-amino-6-[6-(dimethylamino)pyridin-3-yl]-8-(cis-4-hydroxycyclohexyl)-4-methylpyrido[2,3-d]pyrimidin-7(8H)-one]
IC50: 17.6 nM

CO[C@H]1CC[C@H](n2c(=O)c(-c3cn[nH]c3)cc3c(C)nc(N)nc32)CC1 [Compound 183, 2-amino-8-(trans-4-methoxycyclohexyl)-4-methyl-6-(1H-pyrazol-4-yl)pyrido[2,3-d]pyrimidin-7(8H)-one]
IC50: 4.69 nM

COc1ncc(-c2cc3c(C)nc(N)nc3n([C@H]3CC[C@H](O)CC3)c2=O)cc1F [Compound 191, 2-amino-6-[5-fluoro-6-methoxypyridin-3-yl)-8-(trans-4-hydroxycyclohexyl)-4-methylpyrido[2,3-d]pyrimidin-7(8H)-one]
IC50: 3.1 nM

COc1ccc(-c2cc3c(C)nc(N)nc3n(C3CCOCC3)c2=O)cn1 [Compound 200, 2-amino-6-(6-methoxypyridin-3-yl)-4-methyl-8-(tetrahydro-2H-pyran-4-yl)pyrido[2,3-d]pyrimidin-7(8H)-one]
IC50: 71.4 nM

Cc1nc(N)nc2c1cc(-c1cn[nH]c1)c(=O)n2CC1CCOC1 (stereo not shown) [Compound 219, 2-amino-4-methyl-6-(1H-pyrazol-4-yl)-8-((tetrahydrofuran-3-yl)methyl)pyrido[2,3-d]pyrimidin-7(8H)-one]
IC50: 94.9 nM

COc1ccc(-c2cc3c(C)nc(N)nc3n(CC3CCOC3)c2=O)cn1 (stereo not shown) [Compound 220, 2-amino-6-(6-methoxypyridin-3-yl)-4-methyl-8-((tetrahydrofuran-3-yl)methyl)pyrido[2,3-d]pyrimidin-7(8H)-one]
IC50: 145 nM
